Assay: Franz cell diffusion assay, transcutaneous permeation
Type: in vitro ADME, porcine
Conditions: in the presence of the combined extracts
Protocol: The transcutaneous permeation of w/o creams according to Examples 2 and 3 were evaluated by using the Franz cell diffusion assay and compared with the permeation of w/o creams containing Mitragyna alkaloids only and Cannabis cannabinoids only, according to examples 4 and 5.
As known, Franz cell diffusion assay is the most common and reliable method to evaluate the transcutaneous permeation of molecules. Such an assay is well known in the art and a detailed description is not necessary.
The assay conditions were as follows: • cells used: 0.9 and 1.4 mm diameter. • membrane: porcine ear skin, 1 mm thickness. • temperature of incubation: 32° C.
The results of the evaluations are shown in FIG. 1, where the different bars relate to: • a cream according to Example 4, with 1% Mitragyna alkaloids; • a cream according to Example 5, with 1% cannabinoids; • a cream according to Example 2, containing 0.5% purified Mitragyna alkaloids and 0.5% cannabinoids; • a cream with enhancer according to Example 3, also containing 0.5% purified Mitragyna alkaloids and 0.5% cannabinoids, • respectively.
The particular w/o cream according to Example 2 used in the evaluation of transcutaneous permeation had the following composition (percentages in weight): • Diisostearoyl Polyglyceryl-3 Dimer Dilinoleate: 3% • Synthetic Beeswax: 0.2% • Hydrogenated Castor Oil: 0.3% • Paraffinum liquidum: 7% • Isopropyl Myristate: 7% • Hydrogenated polyisobutene: 7.5% • Aqua (water): 60% • Magnesium sulphate heptahydrate: 1% • Mitragyna purified extract (or isolated alkaloids) alcoholic solution: the amount/concentration resulting in a 0.5% alkaloid concentration of in the final formulation; • Cannabis purified extract (or isolated cannabinoids) alcoholic solution: the amount/concentration resulting in a 0.5% […] concentration in the final formulation.

SMILES | concentration detected in Franz cell receptor (order of selective passage)
C=C(C)[C@@H]1CCC(C)=C[C@H]1c1c(O)cc(CCCCC)cc1O [cannabidiol] | increase in concentration
C=C[C@H]1CN2CCc3c([nH]c4cccc(OC)c34)[C@H]2C[C@@H]1/C(=C\OC)C(=O)OC [isopaynantheine] | highest concentrations detected
CC[C@@H]1CN2CCc3c([nH]c4cccc(OC)c34)[C@@H]2C[C@@H]1/C(=C\OC)C(=O)OC [mitragynine] | in lower percentage
C=C[C@H]1CN2CCc3c([nH]c4cccc(OC)c34)[C@@H]2C[C@@H]1/C(=C\OC)C(=O)OC [paynantheine] | in lower percentage
CC[C@@H]1CN2CCc3c([nH]c4cccc(OC)c34)[C@H]2C[C@@H]1/C(=C\OC)C(=O)OC [speciociliatine] | highest concentrations detected

From patent publication US20230405075A1, “PR[…] EXTRACT OR ITS ISOLATED ALKALOIDS AND CANNABIS EXTRACT OR ITS ISOLATED CANNABINOIDS, AND COSMETIC AND/OR PHARMACEUTICAL USE THEREOF” (HERBA INVEST, PTE. LTD., priority 2020, published 2023)
